How the values were obtained:
Assay type in all cases: binding
[1] = test system: Single Stranded Target (DNA); assay: Thermal denaturation Tm, DNA-duplex
Method: (§1) RNA and DNA duplex and DNA-triplex experiments utilizing certain desirable modified internucleoside linkages of this invention were conducted to determine those linkages' effect on the Tm values of the resulting oligonucleotides.
(§2) These experiments were carried out in a buffered solution (140 mM KCl, 5 mM Na2HPO4, and 1 mM MgCl2) at pH=6.6 (except for the 2′-5′ carbamate which was buffered at pH=7.0) according to the following protocol: 0.15 ODs of the target RNA/DNA was combined with 0.1 OD of the oligomer being assayed in a sterile eppendorf tube and dried. To this mixture was added 300 λ of Tm buffer and the solution was stirred. Tm values were then determined by a first derivative plot of absorbance versus temperature. Thermal denaturation analysis was carried out-with a heating rate of 0.25° C./min and absorbance was monitored at 260 nm.
(§3) The test oligomers that were synthesized for analysis were of the following sequence:
(§4) 5′-TC^mTC^mTC^mTC^mTC^mT^TT^TT-3′
(§5) where T=thymidine, C^m=5-methyl-2′-deoxycytidine, and T^T=a thymidine-thymidine dimer with an experimental linkage of the structure detailed in the table below. All other linkages were phosphodiester.

[2] = test system: Single Stranded Target (RNA); assay: Thermal denaturation Tm, DNA-RNA-duplex
Method: as §1, §2, §3, §4, §5

[3] = test system: Target Duplex Sequence (DNA) 5′ AGAGAGAGAGAAAAA 3′; assay: Thermal denaturation Tm, DNA-Triplex
Method: as §1, §2, §3, §4, §5

[4] = Tm change per substituted linkage vs control of the same group

**Q.** Which results are given for “5′-2′ thioformacetal: Test oligomer 5′-TCmTCmTCmTCmTCmT^TT^TT-3′, the two T^T dimers having a 5′-2′ thioformacetal linkage; other linkages phosphodiester”?
**A.** DNA-duplex Tm ([1]; 140 mM KCl, 5 mM Na2HPO4, 1 mM MgCl2, pH 6.6 (2′-5′ carbamate buffered at pH 7.0), first derivative of A260 vs temperature): 53.0; DNA-duplex ° C./subst [1, 4]: +1.8 ° C./subst; DNA-RNA-duplex Tm ([2]; 140 mM KCl, 5 mM Na2HPO4, 1 mM MgCl2, pH 6.6 (2′-5′ carbamate buffered at pH 7.0)): 58.5; DNA-RNA-duplex ° C./subst [2, 4]: −1.5 ° C./subst; DNA-Triplex Tm ([3]; 140 mM KCl, 5 mM Na2HPO4, 1 mM MgCl2, pH 6.6): 39.0; DNA-Triplex ° C./subst ([3]; pH 6.6, Tm change per substituted linkage vs control): 0 ° C./subst

Source: US6683166B2, “Modified internucleoside linkages (ii)” (ISIS Pharmaceuticals, Inc., priority 1992, dated 2004)
